Measurements published in PMC9600550, “The pH Robustness of Bacterial Sensing” (mBio, 2022).
Values joined by “and” are separate entries in the source; they are usually repeats but may differ in a detail not shown here. Identical values can stand only once. Like-named read-outs stand apart in the source and are kept apart here.

Assays:
[1] = target: T1, PctA-LBD (Pseudomonas aeruginosa, UniProt G3XD24); experiment: ITC titration of PctA-LBD with L-alanine at different pH; type: binding, P. aeruginosa PAO1
T1 construct: pET28b(+) derivative containing a DNA fragment encoding the PctA-LBD; made in house
T1 sequence (G3XD24 32-276): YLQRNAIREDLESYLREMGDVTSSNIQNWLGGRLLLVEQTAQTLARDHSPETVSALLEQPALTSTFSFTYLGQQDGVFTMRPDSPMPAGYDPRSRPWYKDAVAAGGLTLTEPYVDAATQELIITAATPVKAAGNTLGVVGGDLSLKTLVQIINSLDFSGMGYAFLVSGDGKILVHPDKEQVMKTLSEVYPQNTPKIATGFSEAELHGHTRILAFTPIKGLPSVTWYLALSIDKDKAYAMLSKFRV

[2] = tested on: P. aeruginosa PAO1; experiment: Quantitative capillary chemotaxis assay at different pH; type: cell-based; conditions: 1 mM ligand
Method: We evaluated the effect of pH on P. aeruginosa chemotaxis to L-Ala, a ligand of the PctA chemoreceptor, using the quantitative capillary chemotaxis assay. Prior to performing these assays, we evaluated cell viability and motility at different pH values. We grew cells in minimal medium to an OD660 of 0.4, washed twice with chemotaxis buffer at the different pH values, resuspended in the corresponding buffer, and incubated for 1 h. Cells were then plated out to assess cell viability. […] We then determined the effect of different pH on the chemotactic responses to L-Ala.
Chemotaxis assays were performed as previously described ([79]) with some modifications. When cultures reached an OD660 of 0.4, the cells were gently washed twice with chemotaxis buffer at different pH and then resuspended in fresh buffer. The chemoeffector solutions were prepared in the corresponding chemotaxis buffer. Data are the means and standard deviations of at least 3 biological replicates conducted in triplicate.

[3] = target: McpU-LBD (Pseudomonas putida, UniProt Q88NI1); experiment: biochemical
McpU-LBD, sequence (Q88NI1 50-284): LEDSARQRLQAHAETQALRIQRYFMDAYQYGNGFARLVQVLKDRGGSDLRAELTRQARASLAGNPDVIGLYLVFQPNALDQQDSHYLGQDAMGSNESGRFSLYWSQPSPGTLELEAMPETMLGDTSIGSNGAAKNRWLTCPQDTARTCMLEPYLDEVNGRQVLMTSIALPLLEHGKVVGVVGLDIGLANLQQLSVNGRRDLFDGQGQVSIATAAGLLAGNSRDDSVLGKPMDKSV
Method: (§1) To assess the pH dependence of ligand-binding, freshly purified proteins were dialyzed overnight into the buffers described in Table S1 and submitted to microcalorimetric titration.
(§2) Freshly purified proteins were dialyzed into the buffers specified in Table S1 and introduced into the sample cell of an VP-microcalorimeter (MicroCal). Proteins at 15 to 100 μM were titrated with 0.25 to 10 mM ligand solutions that were made up in dialysis buffer. For pH-active ligands, the pH of the ligand solutions was adjusted to that of the dialysis buffer by the addition of concentrated HCl or NaOH. Titrations of MBP and McpV-LBD were conducted at 15°C to favor endothermic contributions to binding heats, whereas the remaining titrations were carried out at 25°C. Raw titration data were integrated, corrected for ligand-dilution heats and normalized with the ligand concentrations. Resulting data were fitted with the “One Binding site model” of the MicroCal version of ORIGIN. Provided are the dissociation constants derived from one experiment and the error of curve-fitting.

[4] = target: T2, McpH-LBD (Pseudomonas putida, UniProt Q88R14); experiment: ITC titration of McpH-LBD with adenine at different pH; type: binding, P. putida KT2440; conditions: 25°C
T2 construct: pET28b(+) derivative containing a DNA fragment encoding the McpH-LBD; made in house
T2 sequence (Q88R14 51-276): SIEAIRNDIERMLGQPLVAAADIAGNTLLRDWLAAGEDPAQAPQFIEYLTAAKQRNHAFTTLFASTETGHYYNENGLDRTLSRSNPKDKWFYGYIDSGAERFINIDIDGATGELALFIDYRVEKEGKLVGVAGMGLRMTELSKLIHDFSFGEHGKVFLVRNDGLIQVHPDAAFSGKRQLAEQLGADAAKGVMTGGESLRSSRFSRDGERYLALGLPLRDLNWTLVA

[5] = target: T3, Tar-LBD (Escherichia coli, UniProt P07017); experiment: Sedimentation-velocity analytical ultracentrifugation of Tar-LBD with and without L-Asp; set-up: species or system E. coli K12; conditions: 1 mM ligand; all pH values analysed (3.5, 5.0, 7.0, 10.0)
T3 construct: A DNA fragment encoding the Tar-LBD (amino acids 31 to 188) was amplified from genomic DNA of E. coli K12; His tag (from pET28b(+)) (N); made in house; host or cells: Escherichia coli BL21(DE3)
Method: To estimate the sedimentation coefficient expected for the monomeric and dimeric states of the Tar-LBD, a hydrodynamic model was generated from the 3D structure of the protein (pdb ID 4Z9H) ([45]). Using the HYDROPRO software, the theoretical sedimentation coefficients were s(20,w) = 2.12 S for the monomer and 3.54 S for the dimer (Fig. 5A).
Experiments were conducted on a ProteomeLab XL-I instrument (Beckman-Coulter) equipped with interference and absorbance optics. Sedimentation was carried out at 42,000 rpm and 10°C in an eight-hole Ti-50 Beckman Coulter rotor and monitored with absorbance optics at 280 nm in continuous mode. Samples were dialyzed into 4 different buffers, namely, 10 mM citric acid/sodium citrate, pH 3.5; 10 mM citric acid/sodium citrate, pH 5.0; 3 mM Tris, 3 mM PIPES, 3 mM MES, pH 7.0, and 10 mM Na2CO3/NaHCO3, pH 10.0. […] Density and viscosity of the buffer were calculated with [sequence] […] To assign the sedimentation coefficient observed to the corresponding oligomeric species, theoretical s values were calculated via HYDROPRO ([92]) hydrodynamic modeling software, applied to the 3D structure of the Tar-LBD monomer and dimer (pdb ID 4H9Z), with a 2.9 Å radius for the primary elements.

[6] = target: T4, Tar (Escherichia coli, UniProt P07017); experiment: FRET (CheY-YFP/CheZ-CFP) chemotaxis pathway response, Tar as sole chemoreceptor; type: cell-based; conditions: E. coli VS181 with Tar as sole chemoreceptor, read-out: EC50 (half-maximal effective concentration), FRET titration
T4 construct: expressed in transfected cells; host or cells: receptorless E. coli VS181, plasmid pSB13 (pKG116 derivative)
T4 sequence (P07017 whole entry): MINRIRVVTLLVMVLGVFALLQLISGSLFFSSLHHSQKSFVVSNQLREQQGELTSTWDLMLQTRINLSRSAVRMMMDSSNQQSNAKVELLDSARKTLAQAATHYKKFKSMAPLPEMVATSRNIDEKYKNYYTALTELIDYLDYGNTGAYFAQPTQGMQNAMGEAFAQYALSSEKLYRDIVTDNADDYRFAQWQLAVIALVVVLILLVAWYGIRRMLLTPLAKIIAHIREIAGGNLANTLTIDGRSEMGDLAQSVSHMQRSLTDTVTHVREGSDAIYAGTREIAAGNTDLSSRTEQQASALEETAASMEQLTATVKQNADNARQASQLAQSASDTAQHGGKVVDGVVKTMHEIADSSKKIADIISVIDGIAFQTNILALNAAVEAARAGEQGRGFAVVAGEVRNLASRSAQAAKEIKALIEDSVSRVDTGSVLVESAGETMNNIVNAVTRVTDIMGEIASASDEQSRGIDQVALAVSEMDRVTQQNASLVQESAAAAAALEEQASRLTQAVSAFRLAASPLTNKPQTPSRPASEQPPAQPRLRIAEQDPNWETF

[7] = target: T3, Tar-LBD; experiment: Differential scanning calorimetry of Tar-LBD thermal unfolding in presence of L-Asp; set-up: species or system E. coli K12; conditions: 1 mM L-Asp
Method: Differential scanning calorimetry (DSC) provides information on the thermodynamics of protein unfolding. At 5.0, the optimal pH for binding and dimerization, Tar-LBD formed a sharp peak with or without 1 mM L-Asp (Fig. 5B and C, and Table S3), indicative of highly cooperative unfolding. […] We thus conclude that at all pH values tested, at least some of the protein was present in the dimeric form and capable of binding ligand.
Experiments were conducted on a MicroCal DSC-PEAQ system (Malvern Panalytical) at a scan rate of 90°C/h over a temperature range of 10°C to 85°C. Calorimetric cells (operating volume 0.134 mL) were kept under pressure (60 lb/in^2) to prevent sample degassing. Buffer-buffer baselines obtained after each assay were subtracted from the signal obtained from each of the samples. Protein samples were prepared as detailed in the “Analytical ultracentrifugation” section. The calorimetric enthalpies were estimated by integration of the transition peaks after subtracting the buffer-buffer baselines and fitting the curves to a “Non-two-state” model using MicroCal DSC-PEAQ software. For graphical clarity of the plots, baselines were manually curated and raw data were smoothed with the Savitzky-Golay algorithm.

[8] = target: T3, Tar-LBD; experiment: ITC titration of Tar-LBD with L-aspartate at different pH; type: binding, E. coli K12; conditions: for pH range of binding: defined as binding with a KD below 1 mM
[9] = target: TodS-Nter (Pseudomonas putida, UniProt E0X9C7); experiment: biochemical
TodS-Nter, sequence (E0X9C7 1-584): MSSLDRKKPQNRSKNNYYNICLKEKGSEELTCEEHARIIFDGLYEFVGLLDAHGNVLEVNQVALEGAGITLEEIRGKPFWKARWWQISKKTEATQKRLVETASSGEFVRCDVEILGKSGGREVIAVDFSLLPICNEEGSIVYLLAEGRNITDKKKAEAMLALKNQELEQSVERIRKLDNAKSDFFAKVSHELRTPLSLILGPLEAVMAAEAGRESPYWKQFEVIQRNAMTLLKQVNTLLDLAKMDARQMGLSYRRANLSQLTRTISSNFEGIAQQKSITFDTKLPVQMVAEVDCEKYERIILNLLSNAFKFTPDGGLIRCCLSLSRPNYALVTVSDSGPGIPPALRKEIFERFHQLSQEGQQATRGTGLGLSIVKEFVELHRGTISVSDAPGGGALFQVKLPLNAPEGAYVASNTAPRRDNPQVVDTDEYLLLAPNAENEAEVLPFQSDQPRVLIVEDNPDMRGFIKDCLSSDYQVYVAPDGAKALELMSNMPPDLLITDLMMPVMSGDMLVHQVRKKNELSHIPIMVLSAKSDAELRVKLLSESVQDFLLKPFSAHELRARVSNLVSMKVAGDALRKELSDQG
Method: as §1, §2

[10] = target: T5, McpQ-LBD (Pseudomonas putida, UniProt Q88D09); experiment: ITC titration of McpQ-LBD with citrate at different pH; type: binding, P. putida KT2440; conditions: 25°C
T5 construct: pET28b(+) derivative containing a DNA fragment encoding the McpQ-LBD; made in house
T5 sequence (Q88D09 45-282): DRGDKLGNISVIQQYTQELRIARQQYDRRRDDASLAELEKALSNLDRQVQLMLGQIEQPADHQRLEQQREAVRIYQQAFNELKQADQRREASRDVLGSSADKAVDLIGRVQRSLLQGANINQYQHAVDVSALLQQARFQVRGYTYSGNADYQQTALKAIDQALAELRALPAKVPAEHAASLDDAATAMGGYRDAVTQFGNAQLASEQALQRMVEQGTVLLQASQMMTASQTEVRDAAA

[11] = target: the molecule itself; experiment: AUC; sedimentation velocity with 1 mM L-Asp, 35 uM protein, pH 3.5, 5.0, 7.0 and 10.0, 10°C, 42,000 rpm; monomer to dimer
[12] = ITC, 25°C, defined as binding with a KD below 1 mM

Molecule: C[C@H](N)C(=O)O [L-alanine]
- pH optimum ([1]; 25°C): 5.5
- pH range of binding ([1]; 25°C, defined as binding with a KD below 1 mM): 3.0-11.5
- Kd ([1]; average over the pH range 3.0 to 11.0, read-out: average dissociation constant (KD)): 1260 ± 700 nM
- Kd ([1]; pH 3.0, read-out: dissociation constant (KD)): 1300 nM
- width of pH range of high-affinity binding ([1]; pH 3.0 to 11.5): 8.5 pH units
- Kd ([1]; pH 9.0, read-out: dissociation constant (KD)): 910 nM
- Kd ([1]; pH 11.0, read-out: dissociation constant (KD)): 3900 nM
- pH of optimal chemotactic responses [2]: 7.0

Molecule: NCCCCN [Putrescine]
- Kd [3]: 700 nM
- pH optimum ([3]; ITC, 25°C): 8.5
- pH range of binding [3, 12]: 4.5-11.5

Molecule: Nc1ncnc2[nH]cnc12 [Adenine]
- pH optimum [4]: 5.0
- pH range of binding ([4]; defined as binding with a KD below 1 mM): 3.5-10.0
- Kd ([4]; pH 5.0, read-out: KD at pH optimum): 1680 nM

Molecule: N[C@@H](CC(=O)O)C(=O)O [L-aspartate]
- effect on Tar-LBD monomer-dimer equilibrium [5]: shifted the equilibrium almost completely to the dimeric species
- EC50 ([6]; pH 5.5): 166 ± 20 nM
- EC50 ([6]; pH 7.0): 202 ± 20 nM
- EC50 ([6]; pH 8.5): 77 ± 10 nM
- EC50 ([6]; pH 9.5): 141 ± 20 nM
- Tm of Tar-LBD thermal unfolding ([7]; pH 3.5, two transitions): 44.28 ºC and 64.51 ºC
- Tm of Tar-LBD thermal unfolding ([7]; pH 5.0): 47.73 ºC
- ΔH of Tar-LBD thermal unfolding ([7]; pH 5.0): 106.4 kcal/mol
- Tm of Tar-LBD thermal unfolding ([7]; pH 7.0, two transitions): 36.48 ºC and 42.20 ºC
- Tm of Tar-LBD thermal unfolding ([7]; pH 10.0): 35.11 ºC
- ΔH of Tar-LBD thermal unfolding ([7]; pH 10.0): 98.6 kcal/mol
- pH optimum ([8]; 25°C): 5.0
- pH range of binding ([8]; 25°C): 3.0-10.5
- pH range of binding ([8]; 25°C, listed as L-Asp): ≤ 10.5
- Kd ([8]; 25°C, pH 5.0, read-out: KD at pH optimum): 400 nM
- width of pH range of high-affinity binding ([8]; pH 3.0 to 10.5): 7.5 pH units

Molecule: Cc1ccccc1 [Toluene]
- Kd [9]: 250 nM
- width of pH range of ligand recognition ([9]; ITC): 4 pH units
- pH optimum ([9]; ITC, 25°C): 6.5
- pH range of binding [9, 12]: 5.5-9.5

Molecule: O=C(O)CC(O)(CC(=O)O)C(=O)O [Citrate]
- pH optimum [10]: 6.0
- Kd ([10]; pH 6.0, read-out: KD at pH optimum): 153000 nM

B1: Tar-LBD (ligand-binding domain of the aspartate chemoreceptor Tar of E. coli) (domain or fragment, E. coli K12, UniProt P07017 31-188, looked up)
chain: SSLHHSQKSFVVSNQLREQQGELTSTWDLMLQTRINLSRSAVRMMMDSSNQQSNAKVELLDSARKTLAQAATHYKKFKSMAPLPEMVATSRNIDEKYKNYYTALTELIDYLDYGNTGAYFAQPTQGMQNAMGEAFAQYALSSEKLYRDIVTDNADDYR
notes: Cloned into the NdeI and BamHI sites of pET28b(+) and purified on a HisTrap column; In solution it is a rapidly interchanging mixture of monomer and dimer; also called E. coli Tar-LBD; LBD of the Tar chemoreceptor; source: E. coli BL21(DE3), purified (HisTrap)
- stoichiometry N [11]: 2
